According to US10233182B2, “Substituted spirocyclic inhibitors of autotaxin” (X-Rx, Inc., priority 2014, dated 2019):

target: Autotaxin (Homo sapiens (Human), UniProt Q13822); assay: Autotaxin LPC Cascade Assay; type: biochemical; conditions: Autotaxin 5 nM, LPC 100 μM, choline oxidase/HRP/Ampliflu Red fluorescence read-out, 2% DMSO, RT; read-out: IC50 ATX Activity
Method: Autotaxin LPC Cascade Assay:
HA130 and Test Compounds:
Prepare a 1 mM stock of HA130 and a 3 mM stock of each compound in 100% DMSO. Perform a 1:3 serial dilution in DMSO (transfer 5 l of compound to 10 l of DMSO). Add 240 l of buffer to generate a top working concentration of 40 µM (HA130) and 120 µM (test compound) in 4% DMSO.
Ampliflu Red—Prepare a stock of 5 mM from 100 mM in 100% DMSO. Further dilute to a working concentration of 400 μM in buffer (8% DMSO).
Together with compound this yields a 2% DMSO final concentration.
Choline Oxidase/HRP—0.8 U/mL CO and 8 U/mL HRP.
Incubate for 10 mins at RT. Add 5 µl of LPC and incubate for 1 hr on the plate shaker. Prepare the CO/HRP and AR immediately prior to use. Add 2.5 l of CO/HRP and follow with 2.5 l AR. Note order of addition, CO/HRP mix before AR. Read fluorescence intensity (ex/em: 530/590 nm) kinetically for 30 min at RT on the Tecan M1000.

SMILES | IC50
CN1C(=O)N(c2ccc3[nH]ncc3c2)C2(CCN(C(=O)C3(NC(=O)c4cc(C(F)(F)F)ccc4F)CC3)CC2)C1=O [Example 71, N-(1-(1-(1H-Indazol-5-yl)-3-methyl-2,4-dioxo-1,3,8-triazaspiro[4.5]decane-8-carbonyl)cyclopropyl)-2-fluoro-5-(trifluoromethyl)benzamide] | ≥ 1000 nM
CC(C)[C@@H](NC(=O)c1cc(C2CC2)ccc1F)C(=O)N1CCC2(CC1)C(=O)N(C)C(=O)N2c1ccc2[nH]ncc2c1 [Example 54, (R)—N-(1-(1-(1H-Indazol-5-yl)-3-methyl-2,4-dioxo-1,3,8-triazaspiro[4.5]decan-8-yl)-3-methyl-1-oxobutan-2-yl)-5-cyclopropyl-2-fluorobenzamide] | < 500 nM
CC(C)[C@@H](NC(=O)c1cc(C(F)(F)F)ccc1F)C(=O)N1CCC2(CC1)C(=O)N(C)C(=O)N2c1ccc(S(C)(=O)=O)cc1 [Example 9, (R)-2-Fluoro-N-(3-methyl-1-(3-methyl-1-(4-(methylsulfonyl)phenyl)-2,4-dioxo-1,3,8-triazaspiro[4.5]decan-8-yl)-1-oxobutan-2-yl)-5-(trifluoromethyl)benzamide] | 500 to 1000 nM
CCc1ccc(F)c(C(=O)N[C@@H](C(=O)N2CCC3(CC2)C(=O)N(C)CN3c2ccc(S(C)(=O)=O)cc2)C(C)C)c1 [Example 200, (R)-5-Ethyl-2-fluoro-N-(3-methyl-1-(3-methyl-1-(4-(methylsulfonyl)phenyl)-4-oxo-1,3,8-triazaspiro[4.5]decan-8-yl)-1-oxobutan-2-yl)benzamide] | < 500 nM
CCc1ccc(F)c(C(=O)N[C@@H](C(=O)N2CCC3(CC2)C(=O)N(C)[C@H](C)N3c2ccc(C(=O)O)cc2)C(C)C)c1 (single isomer, unassigned) [Example 210] | < 500 nM
CC(C)[C@@H](NC(=O)c1cc(C(F)(F)F)ccc1F)C(=O)N1CCC2(CC1)C(=O)N(C)CN2c1ccc(NS(C)(=O)=O)cc1 [Example 174, (R)-2-Fluoro-N-(3-methyl-1-(3-methyl-1-(4-(methylsulfonamido)phenyl)-4-oxo-1,3,8-triazaspiro[4.5]decan-8-yl)-1-oxobutan-2-yl)-5-(trifluoromethyl)benzamide] | < 500 nM
CO[C@@H](C)[C@@H](NC(=O)c1cccc(C)c1)C(=O)N1CCC2(CC1)C(=O)N(C)CN2c1ccccc1 [Example 134, N-((2R,3S)-3-Methoxy-1-(3-methyl-4-oxo-1-phenyl-1,3,8-triazaspiro[4.5]decan-8-yl)-1-oxobutan-2-yl)-3-methylbenzamide] | < 500 nM
CC(C)[C@@H](NC(=O)c1cc(C(F)(F)F)ccc1F)C(=O)N1CCC2(CC1)C(=O)N(C)CN2c1ccc2[nH]ncc2c1 [Example 214, (R)—N-(1-(1-(1H-Indazol-5-yl)-3-methyl-4-oxo-1,3,8-triazaspiro[4.5]decan-8-yl)-3-methyl-1-oxobutan-2-yl)-2-fluoro-5-(trifluoromethyl)benzamide] | < 500 nM
CC(C)[C@@H](NC(=O)c1cc(C(F)(F)F)ccc1F)C(=O)N1CCC2(CC1)C(=O)N(C)C(=O)N2c1ccc2c(c1)OCCN2 [Example 21, (R)—N-(1-(1-(3,4-Dihydro-2H-benzo[b][1,4]oxazin-7-yl)-3-methyl-2,4-dioxo-1,3,8-triazaspiro[4.5]decan-8-yl)-3-methyl-1-oxobutan-2-yl)-2-fluoro-5-(trifluoromethyl)benzamide] | < 500 nM
CC(C)[C@@H](NC(=O)c1cc(Cl)cc(C(F)(F)F)c1)C(=O)N1CCC2(CC1)C(=O)N(C)CN2c1ccc(=O)n(C)c1 [Example 207, (R)-3-Chloro-N-(3-methyl-1-(3-methyl-1-(1-methyl-6-oxo-1,6-dihydropyridin-3-yl)-4-oxo-1,3,8-triazaspiro[4.5]decan-8-yl)-1-oxobutan-2-yl)-5-(trifluoromethyl)benzamide] | < 500 nM
CC(C)[C@H](NC(=O)c1cc(C(F)(F)F)ccc1F)C(=O)N1CCC2(CC1)C(=O)N(C)C(=O)N2c1ccc2[nH]ncc2c1 [Example 69, (S)—N-(1-(1-(1H-Indazol-5-yl)-3-methyl-2,4-dioxo-1,3,8-triazaspiro[4.5]decan-8-yl)-3-methyl-1-oxobutan-2-yl)-2-fluoro-5-(trifluoromethyl)benzamide] | ≥ 1000 nM
CC(C)[C@@H](NC(=O)c1cc(C(F)(F)F)ccc1F)C(=O)N1CCC2(CC1)C(=O)N(C)CN2c1ccc(NC2COC2)cc1 [Example 218, (R)-2-Fluoro-N-(3-methyl-1-(3-methyl-1-(4-(oxetan-3-ylamino)phenyl)-4-oxo-1,3,8-triazaspiro[4.5]decan-8-yl)-1-oxobutan-2-yl)-5-(trifluoromethyl)benzamide] | < 500 nM
CC(C)[C@@H](NC(=O)c1ccccc1)C(=O)N1CCC2(CC1)C(=O)N(C)C(=O)N2c1ccc2[nH]ncc2c1 [Example 233, (R)—N-(1-(1-(1H-Indazol-5-yl)-3-methyl-2,4-dioxo-1,3,8-triazaspiro[4.5]decan-8-yl)-3-methyl-1-oxobutan-2-yl)benzamide] | ≥ 1000 nM
C[C@@H](NC(=O)c1cc(C(F)(F)F)ccc1F)C(=O)N1CCC2(CC1)C(=O)N(C)C(=O)N2c1ccc2[nH]ncc2c1 [Example 72, (R)—N-(1-(1-(1H-Indazol-5-yl)-3-methyl-2,4-dioxo-1,3,8-triazaspiro[4.5]decan-8-yl)-1-oxopropan-2-yl)-2-fluoro-5-(trifluoromethyl)benzamide] | ≥ 1000 nM
CC(C)[C@@H](NC(=O)c1cc(C(F)(F)F)ccc1F)C(=O)N1CCC2(CC1)C(=O)N(C)C(=O)N2c1ccc(NC(=O)C2CC2)cc1 [Example 128, (R)—N-(1-(1-(4-(Cyclopropanecarboxamido)phenyl)-3-methyl-2,4-dioxo-1,3,8-triazaspiro[4.5]decan-8-yl)-3-methyl-1-oxobutan-2-yl)-2-fluoro-5-(trifluoromethyl)benzamide] | 500 to 1000 nM
CC(C)[C@@H](NC(=O)c1cc(C(F)(F)F)ccc1F)C(=O)N1CCC2(CC1)C(=O)N(C)C(=O)N2CC1CC1 [Example 75, (R)—N-(1-(1-(Cyclopropylmethyl)-3-methyl-2,4-dioxo-1,3,8-triazaspiro[4.5]decan-8-yl)-3-methyl-1-oxobutan-2-yl)-2-fluoro-5-(trifluoromethyl)benzamide] | ≥ 1000 nM
Cc1cc(C(=O)N[C@@H](C(=O)N2CCC3(CC2)C(=O)N(C)CN3c2ccccc2)C(C)C)ccn1 [Example 137, (R)-2-Methyl-N-(3-methyl-1-(3-methyl-4-oxo-1-phenyl-1,3,8-triazaspiro[4.5]decan-8-yl)-1-oxobutan-2-yl)isonicotinamide] | ≥ 1000 nM
CC(C)[C@@H](NC(=O)c1nc(C(F)(F)F)cs1)C(=O)N1CCC2(CC1)C(=O)N(C)C(=O)N2c1ccc2[nH]ncc2c1 [Example 235, (R)—N-(1-(1-(1H-Indazol-5-yl)-3-methyl-2,4-dioxo-1,3,8-triazaspiro[4.5]decan-8-yl)-3-methyl-1-oxobutan-2-yl)-4-(trifluoromethyl)thiazole-2-carboxamide] | ≥ 1000 nM
CC(C)[C@@H](NC(=O)c1cc(C(F)(F)F)ccc1F)C(=O)N1CCC2(CC1)C(=O)N(C)C(=O)N2c1ccc2[nH]c(=O)oc2c1 [Example 28, (R)-2-Fluoro-N-(3-methyl-1-(3-methyl-2,4-dioxo-1-(2-oxo-2,3-dihydrobenzo[d]oxazol-6-yl)-1,3,8-triazaspiro[4.5]decan-8-yl)-1-oxobutan-2-yl)-5-(trifluoromethyl)benzamide] | < 500 nM
CC(C)[C@@H](NC(=O)c1cc(C(F)(F)F)ccc1F)C(=O)N1CCC2(CC1)C(=O)N(C)C(=O)N2c1cnc2[nH]ccc2c1 [Example 20, (R)-2-Fluoro-N-(3-methyl-1-(3-methyl-2,4-dioxo-1-(1H-pyrrolo[2,3-b]pyridin-5-yl)-1,3,8-triazaspiro[4.5]decan-8-yl)-1-oxobutan-2-yl)-5-(trifluoromethyl)benzamide] | < 500 nM
Cc1cccc(C(=O)N[C@@H](C(=O)N2CCC3(CC2)C(=O)N(C)CN3c2cccc(Cl)c2)C(C)C)c1 [Example 192, (R)—N-(1-(1-(3-Chlorophenyl)-3-methyl-4-oxo-1,3,8-triazaspiro[4.5]decan-8-yl)-3-methyl-1-oxobutan-2-yl)-3-methylbenzamide] | < 500 nM
CCc1cccc(C(=O)N[C@@H](C(=O)N2CCC3(CC2)C(=O)N(C)C(=O)N3c2ccccc2)C(C)C)c1 [Example 46, (R)-3-Ethyl-N-(3-methyl-1-(3-methyl-2,4-dioxo-1-phenyl-1,3,8-triazaspiro[4.5]decan-8-yl)-1-oxobutan-2-yl)benzamide] | 500 to 1000 nM
Cc1cccc(C(=O)N[C@@H](C(=O)N2CCC3(CC2)C(=O)N(C)C(=O)N3c2ccccc2)C(C)C)c1F [Example 3, (R)-2-Fluoro-3-methyl-N-(3-methyl-1-(3-methyl-2,4-dioxo-1-phenyl-1,3,8-triazaspiro[4.5]decan-8-yl)-1-oxobutan-2-yl)benzamide] | 500 to 1000 nM
CCc1ccc(F)c(C(=O)N[C@@H](C(=O)N2CCC3(CC2)C(=O)N(C)C(=O)N3c2ccc3cnc(C)n3c2)C(C)C)c1 [Example 18, (R)-5-Ethyl-2-fluoro-N-(3-methyl-1-(3-methyl-1-(3-methylimidazo[1,5-a]pyridin-6-yl)-2,4-dioxo-1,3,8-triazaspiro[4.5]decan-8-yl)-1-oxobutan-2-yl)benzamide] | < 500 nM
CCc1ccc(F)c(C(=O)N[C@@H](C(=O)N2CCC3(CC2)C(=O)N(C)C(=O)N3c2ccc(OC)cc2)C(C)C)c1 [Example 50, (R)-5-Ethyl-2-fluoro-N-(1-(1-(4-methoxyphenyl)-3-methyl-2,4-dioxo-1,3,8-triazaspiro[4.5]decan-8-yl)-3-methyl-1-oxobutan-2-yl)benzamide] | < 500 nM
